How the values were obtained:
Assay type in all cases: physicochemical
[1] = Solubility in PEG400 (naked-eye inspection); conditions: for solubility: polyethylene glycol 400 (PEG400), organic solvent or mixture, thermodynamic from solid, read-out: Solubility in PEG400, Evaluation results
Protocol: 0.5 g each of the high-molecular compounds and plasticizers were placed into separate test tubes. 5 mL of PEG400 was added to each test tube. After stirring with a mixer, the resulting mixtures were inspected with the naked eye and the high-molecular compounds and plasticizers were evaluated for their solubility in PEG400.

[2] = Solubility in 10 wt. % aqueous PVA copolymer solution; conditions: aqueous with cosolvent or surfactant or cyclodextrin, thermodynamic from solid; 0.5 g in 10 wt. % aqueous PVA copolymer (POVACOAT Type F) solution; read-out: Solubility in the Aqueous PVA Copolymer Solution, Evaluation result
Protocol: (§1) Based on the results of Experimental Example 1, the candidates as raw materials for the band seal (see Table 2) were tested to research substances soluble in an aqueous solution of a PVA copolymer (POVACOAT Type F, product of Daido Kasei Corp., viscosity: 5.5 mPa·s, as measured at 25° C. using a 5% aqueous solution of the copolymer), and an aqueous solution of PVA (JP-05, product of Japan Vam & Poval Co., Ltd., average degree of polymerization: 500).
(§2) More specifically, 0.5 g each of the film-forming high-molecular compounds and plasticizers were placed into separate test tubes. A 10 wt. % aqueous solution of the PVA copolymer or a 10 wt. % aqueous solution of the PVA was added to each test tube. […] If some solids or liquid separation was observed, the mixture was evaluated as “not dissolved (insoluble)”.

[3] = Solubility in 10 wt. % aqueous PVA solution; conditions: aqueous with cosolvent or surfactant or cyclodextrin, thermodynamic from solid; 0.5 g in 10 wt. % aqueous PVA (JP-05) solution; read-out: Solubility in the Aqueous PVA Solution, Evaluation result
Protocol: as §1, §2

[4] = 0.5 g in 5 mL of PEG400, stirred, naked eye

Compound | solubility [1, 4] [mg/mL] | also measured
OCC(O)CO [Glycerol] | > 100 | 
CC(O)CO (centres unmarked) [Propylene glycol] | > 100 | 
OC[C@@H](O)[C@@H](O)[C@H](O)[C@@H](O)CO [Sorbitol] | < 100 | Solubility in PEG (in words) ([1]; 0.5 g in 5 mL of PEG400): insoluble; solubility [2]: > 100 mg/mL; solubility [3]: > 100 mg/mL
CC(=O)OCC(COC(C)=O)OC(C)=O [Triacetin] | > 100 | 
Polysorbate 80 |  | Solubility in PEG400, Evaluation results [1, 4]: x (x: dissolved)
